Test results published in PubChem BioAssay (NCI).
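Step 1: Grow cells in 96-well plates. Step 2: Expose to compound for 48 hours at 5 concentrations. Step 3: Interpolate endpoints linearly; if unreached, use highest concentration. GI50 marks 50% less growth. TGI: concentration producing complete growth inhibition.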

Legend:
Assay in all cases: growth of human tumour cells (NCI), 48 h
[1] = test system: HCC-2998 colon
[2] = test system: RXF 393 renal
[3] = test system: SK-MEL-28 melanoma
[4] = test system: SK-OV-3 ovarian
[5] = test system: SNB-19 CNS
[6] = test system: SW-620 colon
[7] = test system: HOP-92 NSCLC
[8] = test system: SR leukemia
[9] = test system: BT-549 breast
[10] = test system: MDA-MB-435

SMILES	TGI [1]	TGI [2]	TGI [3]	TGI [4]	TGI [5]	TGI [6]	GI50 [1]	GI50 [7]	TGI [7]	GI50 [2]	GI50 [3]	GI50 [5]	GI50 [8]	TGI [8]	GI50 [6]	GI50 [9]	TGI [9]	GI50 [4]	GI50 [10]	TGI [10]
Cc1cc(N(CCC#N)CCC#N)ccc1/C=C(\NC(=O)/C=C/c1ccccc1)C(=O)N=[N+]=[N-]	> 100 µM	98.5 µM	> 100 µM	> 100 µM	> 100 µM	> 100 µM	–	–	–	–	–	–	–	–	–	–	–	–	–	–
CN(C)CCC(N)(P(=O)([O-])[O-])P(=O)([O-])[O-].N.N.[Pt+2]	> 100 µM	> 100 µM	> 100 µM	–	> 100 µM	> 100 µM	> 100 µM	> 100 µM	> 100 µM	> 100 µM	> 100 µM	> 100 µM	> 100 µM	> 100 µM	> 100 µM	–	–	–	–	–
CC(=O)OC(C)(C)C1CC[C@]2(C)/C=C/C(C)C[C@@H](O)/C=C(\C)CC(O)C12 (stereo not given in full)	> 100 µM	> 100 µM	> 100 µM	> 100 µM	> 100 µM	> 100 µM	–	–	> 100 µM	–	–	–	–	> 100 µM	–	–	–	–	–	–
O=C(NCc1cn(Cc2cccc(Oc3ccccc3)c2)nn1)c1cccnc1Nc1ccc(F)cc1	> 100 µM	42 µM	> 100 µM	36.1 µM	> 100 µM	> 100 µM	> 100 µM	10.7 µM	43.5 µM	5.69 µM	7.98 µM	20.7 µM	–	–	6.58 µM	45.6 µM	> 100 µM	5.94 µM	–	–
Cn1cc(C2=C(c3ccsc3)C(=O)NC2=O)c2ccccc21	> 25 µM	> 25 µM	> 25 µM	> 25 µM	> 25 µM	> 25 µM	> 25 µM	–	–	24.4 µM	> 25 µM	> 25 µM	> 25 µM	> 25 µM	> 25 µM	> 25 µM	> 25 µM	> 25 µM	> 25 µM	> 25 µM
C=CCC1(O)c2ccccc2C(=O)c2c(OCC(=O)OCC)ccc(OCC(=O)OCC)c21 (stereo not given)	> 100 µM	–	> 100 µM	–	> 100 µM	> 100 µM	44.9 µM	41.9 µM	> 100 µM	–	> 100 µM	> 100 µM	82.6 µM	> 100 µM	> 100 µM	> 100 µM	> 100 µM	–	> 100 µM	> 100 µM
CC(C)(C)CC(C)(C)c1ccc(OCCO)cc1	19.7 µg/mL	18.1 µg/mL	29.7 µg/mL	28.6 µg/mL	19.5 µg/mL	18.6 µg/mL	7.57 µg/mL	–	–	8.58 µg/mL	11.4 µg/mL	6.58 µg/mL	1.43 µg/mL	> 75 µg/mL	7.73 µg/mL	2.49 µg/mL	11.9 µg/mL	11.2 µg/mL	6.26 µg/mL	18.6 µg/mL
C=CC1(C)CCC2C(=CCC3C2(C)CC(O)C(O)C3(C)COC2OC(CO)C(O)C(O)C2O)C1 (stereo not given)	> 100 µM	–	> 100 µM	> 100 µM	> 100 µM	> 100 µM	–	–	> 100 µM	–	–	–	–	> 100 µM	–	–	> 100 µM	–	–	> 100 µM
